Our source for the EC50 values is ChEMBL document CHEMBL5727449, “Toll-like receptor 7 (TLR7) agonists having heteroatom-linked aromatic moieties, conjugates thereof, and methods and uses therefor” (2019).

For the assay, the target named is T1, Toll-like receptor 7 (Homo sapiens, UniProt Q9NYK1).
T1 sequence (Q9NYK1 whole entry): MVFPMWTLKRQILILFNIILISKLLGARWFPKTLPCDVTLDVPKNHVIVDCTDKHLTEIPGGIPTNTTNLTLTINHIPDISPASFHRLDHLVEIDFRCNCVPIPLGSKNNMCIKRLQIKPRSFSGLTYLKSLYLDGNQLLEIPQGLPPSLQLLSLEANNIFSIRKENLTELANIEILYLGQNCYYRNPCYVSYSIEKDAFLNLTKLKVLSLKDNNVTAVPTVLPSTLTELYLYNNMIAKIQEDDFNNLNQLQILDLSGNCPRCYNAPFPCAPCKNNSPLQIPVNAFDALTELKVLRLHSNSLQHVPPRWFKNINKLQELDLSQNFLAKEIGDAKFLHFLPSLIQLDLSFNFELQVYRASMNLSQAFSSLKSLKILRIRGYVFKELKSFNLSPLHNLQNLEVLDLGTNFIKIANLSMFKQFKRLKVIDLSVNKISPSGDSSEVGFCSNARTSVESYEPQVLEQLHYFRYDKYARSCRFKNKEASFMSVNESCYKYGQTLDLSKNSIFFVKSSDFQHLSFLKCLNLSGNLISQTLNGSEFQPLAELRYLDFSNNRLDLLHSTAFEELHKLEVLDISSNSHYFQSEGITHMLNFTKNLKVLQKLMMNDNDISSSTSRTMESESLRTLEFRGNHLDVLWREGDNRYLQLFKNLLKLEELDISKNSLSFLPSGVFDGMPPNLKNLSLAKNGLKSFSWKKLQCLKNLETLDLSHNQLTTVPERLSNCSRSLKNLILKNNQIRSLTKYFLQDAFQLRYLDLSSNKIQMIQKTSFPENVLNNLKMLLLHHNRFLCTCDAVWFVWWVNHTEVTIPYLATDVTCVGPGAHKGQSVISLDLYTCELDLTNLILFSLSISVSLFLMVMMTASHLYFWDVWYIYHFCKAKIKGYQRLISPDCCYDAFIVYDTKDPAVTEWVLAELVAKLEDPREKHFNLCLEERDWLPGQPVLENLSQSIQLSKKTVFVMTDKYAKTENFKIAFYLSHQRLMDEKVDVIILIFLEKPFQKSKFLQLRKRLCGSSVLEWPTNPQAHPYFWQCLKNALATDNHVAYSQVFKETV
The assay can be described thus: HEK-Blue™ TLR7 cells were added to each well of a 384-well tissue-culture plate (15,000 cells per well) and incubated 16-18 h at 37° C., 5% CO2. Compounds (100 nl) were dispensed into wells containing the HEK-Blue™ TLR cells and the treated cells were incubated at 37° C., 5% CO2. After 18 h treatment ten microliters of freshly-prepared Quanti-Blue™ reagent (Invivogen) was added to each well, incubated for 30 min (37° C., 5% CO2) and SEAP levels measured using an Envision plate reader (OD=620 nm).

A word on the EC50: it is the midpoint of the concentration-response curve. Compound `CCCCOc1nc(N)c2nc(O)n(Cc3ccc(Oc4ccc(CN5CCN(C)CC5)nc4)nc3)c2n1` registered a concentration for a half-maximal effect (EC50) of 1.77 nM.
The value for `CCCCOc1nc(N)c2nc(O)n(Cc3ccc(Oc4ccc(CNC5CCOCC5)cc4)c(F)c3)c2n1` was 1.2 nM; that for `CCCCOc1nc(N)c2nc(O)n(Cc3ccc(Oc4ccc(CNCC(C)C)cc4)nc3)c2n1` was 0.54 nM; that for `CCCCOc1nc(N)c2nc(O)n(Cc3ccc(Oc4ccc(CNCCOC)nc4)nc3)c2n1` was 0.96 nM.
Then `CCCCOc1nc(N)c2nc(O)n(Cc3ccc(Nc4ccc(CNC5CCC5)cc4)nc3)c2n1`, with 1.23 nM; and `CCCCOc1nc(N)c2nc(O)n(Cc3cccc(Oc4cccc(CNC5CCC5)c4)c3)c2n1`, with 435 nM.
For `CCCCOc1nc(N)c2nc(O)n(Cc3ccc(Oc4cccc(CNC5COC5)n4)cc3)c2n1`, the EC50 is 4.27 nM.
Turning to `CCCCOc1nc(N)c2nc(O)n(Cc3cccc(Oc4cccc(CNCCC#N)c4)c3)c2n1`, a half-maximal response (EC50) required 279 nM.
In turn, `CCCCOc1nc(N)c2nc(O)n(Cc3ccc(Oc4ccc(CNC5C6CC5C6)cc4)nc3)c2n1` (stereo not drawn) returned an EC50 of 1.3 nM.
`CCCCOc1nc(N)c2nc(O)n(Cc3ccc(Oc4cccc(CNCC(C)C)n4)cc3)c2n1` showed an EC50 of 2.4 nM.
`CCCCOc1nc(N)c2nc(O)n(Cc3cccc(Oc4cccc(CNCCS(C)(=O)=O)c4)c3)c2n1` returned an EC50 of 154 nM.
Then `CCCCOc1nc(N)c2nc(O)n(Cc3cccc(Oc4cccc(CNC5CC(F)(F)C5)c4)c3)c2n1`, with 525 nM.
Then `CCCCOc1nc(N)c2nc(O)n(Cc3ccc(Oc4ccc(CNCC(C)C)cc4)c(F)c3)c2n1`, with 0.45 nM; and `CCCCOc1nc(N)c2nc(O)n(Cc3ccc(Oc4ccc(CNC5CCOCC5)nc4)nc3)c2n1`, with 1.12 nM; and `CCCCOc1nc(N)c2nc(O)n(Cc3ccc(Oc4ccc(CNC5CCC5)cc4)c(F)c3)c2n1`, with 1.38 nM.
For `CCCCOc1nc(N)c2nc(O)n(Cc3cccc(Oc4cccc(CN5CCNCC5)c4)c3)c2n1`, a half-maximal effect (EC50) was put at 942 nM.
As for `CCCCOc1nc(N)c2nc(O)n(Cc3ccc(Oc4ccc(CNC5CC5)cc4)cc3)c2n1`, a half-maximal response (EC50) required 2.1 nM.
The value for `CCCCOc1nc(N)c2nc(O)n(Cc3ccc(Oc4ccc(CNC5COC5)cc4)cc3)c2n1` was 1.7 nM; that for `CCCCOc1nc(N)c2nc(O)n(Cc3ccc(Oc4ccc(CNC5CC(F)(F)C5)cc4)nc3)c2n1` was 1.3 nM.
`CCCCOc1nc(N)c2nc(O)n(Cc3ccc(Nc4ccc(CNC5CCOCC5)cc4)nc3)c2n1` yielded an EC50 of 4.3 nM.
On to `CCCCOc1nc(N)c2nc(O)n(Cc3ccc(Oc4ccc(CNCCO)cc4)c(F)c3)c2n1`, for which it took 0.46 nM to reach a half-maximal effect (EC50).
Then `CCCCOc1nc(N)c2nc(O)n(Cc3ccc(Nc4ccc(CN5CCCC5)cc4)nc3)c2n1`, with 1.56 nM.
`CCCCOc1nc(N)c2nc(O)n(Cc3ccc(Oc4ccc(CO)cc4)nc3)c2n1` registered an EC50 of 12 nM.
`CCCCOc1nc(N)c2nc(O)n(Cc3ccc(Nc4ccc(CNCC(C)(C)O)cc4)nc3)c2n1` yielded a concentration for a half-maximal effect (EC50) of 3.2 nM.
`CCCCOc1nc(N)c2nc(O)n(Cc3ccc(Oc4cccc(CNCCC#N)n4)cc3)c2n1`: the EC50 turned out to be 3.57 nM.
Then `CCCCOc1nc(N)c2nc(O)n(Cc3ccc(Oc4ccc(CNCC(C)C)nc4)nc3)c2n1`, with 2.22 nM; and `CCCCOc1nc(N)c2nc(O)n(Cc3ccc(Nc4ccc(CNCC(C)C)cc4)nc3)c2n1`, with 7.5 nM.
With `CCCCOc1nc(N)c2nc(O)n(Cc3ccc(Nc4ccc(CNCCS(C)(=O)=O)cc4)nc3)c2n1`, the concentration for a half-maximal effect (EC50) stood at 0.374 nM.
Then `CCCCOc1nc(N)c2nc(O)n(Cc3ccc(Nc4ccc(CNCCOC)cc4)nc3)c2n1`, with 1.19 nM; and `CCCCOc1nc(N)c2nc(O)n(Cc3ccc(Oc4ccc(CNCCS(C)(=O)=O)cc4)nc3)c2n1`, with 1.8 nM.
In turn, `CCCCOc1nc(N)c2nc(O)n(Cc3ccc(Oc4ccc(CNCCO)cc4)cc3)c2n1` came in with a concentration giving a half-maximal response (EC50) of 1.4 nM.
On to `CCCCOc1nc(N)c2nc(O)n(Cc3ccc(Oc4ccc(CNCCC#N)cc4)nc3)c2n1`, for which the EC50 was 0.35 nM.
`CCCCOc1nc(N)c2nc(O)n(Cc3ccc(Oc4ccc(CNC5CCC5)nc4)nc3)c2n1`: the concentration giving a half-maximal response (EC50) worked out at 2.07 nM.
The value for `CCCCOc1nc(N)c2nc(O)n(Cc3ccc(Oc4ccc(CNC(C)C)cc4)nc3)c2n1` was 1.1 nM; that for `CCCCOc1nc(N)c2nc(O)n(Cc3cccc(Oc4cccc(CNC5COC5)c4)c3)c2n1` was 403 nM.
The value for `CCCCOc1nc(N)c2nc(O)n(Cc3ccc(Oc4ccc(CNCCOC)cc4)c(F)c3)c2n1` was 1.14 nM; that for `CCCCOc1nc(N)c2nc(O)n(Cc3ccc(Oc4ccc(CNC5COC5)cc4)nc3)c2n1` was 0.7 nM; that for `CCCCOc1nc(N)c2nc(O)n(Cc3ccc(Oc4ccc(CNC5CCC5)cc4)cc3)c2n1` was 2.6 nM.
Turning to `CCCCOc1nc(N)c2nc(O)n(Cc3ccc(Oc4ccc(CNC5CCC5)cc4)nc3)c2n1`, a half-maximal response (EC50) required 0.91 nM.
The value for `CCCCOc1nc(N)c2nc(O)n(Cc3ccc(Oc4ccc(CNCC(F)F)nc4)nc3)c2n1` was 1.8 nM; that for `CCCCOc1nc(N)c2nc(O)n(Cc3ccc(Oc4ccc(CNC)cc4)nc3)c2n1` was 1.2 nM; that for `CCCCOc1nc(N)c2nc(O)n(Cc3ccc(Oc4ccc(CNCc5ccccc5)cc4)cc3)c2n1` was 13 nM.
The value for `CCCCOc1nc(N)c2nc(O)n(Cc3ccc(Oc4ccc(CN5CCOCC5)nc4)nc3)c2n1` was 0.89 nM; that for `CCCCOc1nc(N)c2nc(O)n(Cc3ccc(Nc4ccc(CNCCO)cc4)nc3)c2n1` was 5.8 nM.
Compound `CCCCOc1nc(N)c2nc(O)n(Cc3ccc(Nc4ccc(CNCC(F)F)cc4)nc3)c2n1` returned an EC50 of 7.46 nM.
In turn, `CCCCOc1nc(N)c2nc(O)n(Cc3ccc(Oc4ccc(CNC5CCCC5)cc4)nc3)c2n1` had an EC50 of 1.6 nM.
The value for `CCCCOc1nc(N)c2nc(O)n(Cc3ccc(Oc4ccc(CNCc5ccccc5)cc4)nc3)c2n1` was 5.3 nM; that for `CCCCOc1nc(N)c2nc(O)n(Cc3ccc(Oc4ccc(CNCC(F)F)cc4)c(F)c3)c2n1` was 1.8 nM; that for `CCCCOc1nc(N)c2nc(O)n(Cc3ccc(Oc4ccc(CN5CCN(C)CC5)cc4)c(F)c3)c2n1` was 2.9 nM.
The value for `CCCCOc1nc(N)c2nc(O)n(Cc3ccc(Oc4ccc(CNCC5CC5)cc4)nc3)c2n1` was 1.1 nM; that for `CCCCOc1nc(N)c2nc(O)n(Cc3cccc(Oc4cccc(CNCCO)c4)c3)c2n1` was 375 nM; that for `CCCCOc1nc(N)c2nc(O)n(Cc3ccc(Oc4ccc(CN5CCC5)cc4)c(F)c3)c2n1` was 1.12 nM.
The value for `CCCCOc1nc(N)c2nc(O)n(Cc3ccc(Oc4ccc(CNCC(F)F)cc4)nc3)c2n1` was 2.9 nM; that for `CCCCOc1nc(N)c2nc(O)n(Cc3ccc(Oc4cccc(CNC5CCC5)n4)cc3)c2n1` was 2.51 nM; that for `CCCCOc1nc(N)c2nc(O)n(Cc3ccc(Oc4ccc(CNCCO)nc4)nc3)c2n1` was 1.6 nM.
`CCCCOc1nc(N)c2nc(O)n(Cc3cccc(Oc4cccc(CNC)c4)c3)c2n1` registered an EC50 of 455 nM.
The value for `CCCCOc1nc(N)c2nc(O)n(Cc3ccc(Nc4ccc(CN5CCN(C)CC5)cc4)nc3)c2n1` was 4.2 nM; that for `CCCCOc1nc(N)c2nc(O)n(Cc3ccc(Oc4ccc(CN5CCOCC5)cc4)c(F)c3)c2n1` was 3.9 nM.
